Measurements: PubChem BioAssay AID1850 (Southern Research Specialized Biocontainment Screening …, 2009)

System: Salmonella Typhi PhoP-promoter GFP reporter, fluorescence, 4 h
Assay: PhoP regulon inhibitors, Salmonella typhi PhoP promoter GFP reporter, confirmatory (AID 1850)

SMILES	IC50
O=C(NCCCN1CCN(c2ccc(F)cc2)CC1)Nc1ccc([N+](=O)[O-])cc1	76.1 µM
NC1=NC[C@H](Cc2ccc(O)cc2)N1CCC12CC3CC(CC(C3)C1)C2	35.8 µM
Cc1cc(C)c(NC(=O)C[N+](C)(C)CC(O)COc2cccc3ccccc23)c(C)c1 (centres undefined)	46.3 µM
Cc1ccc(C(=O)O)cc1N=Cc1cc(Br)cc(Br)c1O	27.4 µM
N=c1n(Cc2ccc(Cl)cc2)c2ccccc2n1CC(O)COc1ccccc1 (centres undefined)	55.4 µM
CCC(C)NC(=O)c1cn(CC)c2cc(N3CCN(C)CC3)c(F)cc2c1=O (centres undefined)	20.7 µM
CCCCn1c(NS(=O)(=O)c2ccccc2)c(C(=O)OCC)c2nc3ccccc3nc21	35 µM
COc1cccc(Nc2nc(NCC3CCCO3)c3ccccc3n2)c1 (centres undefined)	10.2 µM
Clc1ccc(C[n+]2cc(-c3ccc(Cl)cc3)n3c2CCC3)cc1	52.4 µM
O/N=C/c1ccc(OCc2ccccc2)c(Cl)c1	80.6 µM
COc1ccc(Nc2c3c(nc4ccccc24)CCC3)cc1	74.6 µM
CCCCCOc1ccc(C)cc1CN(CCCl)CCCl	30.4 µM
CCN(CCNCC(O)COc1ccccc1C(C)C)c1cccc(C)c1 (centres undefined)	32.5 µM
CS(=O)(=O)c1ccc([C@@H](O)[C@@H](CO)NC(=O)C(Cl)Cl)cc1	33.5 µM
N=c1n(CC(=O)c2ccc(Br)s2)c2ccccc2n1Cc1ccccc1	51.8 µM
COc1ccc(CNCCc2cccc(F)c2)c2ccccc12	74.6 µM
Oc1cccc(Nc2nc(NCC3CCCO3)c3ccccc3n2)c1 (centres undefined)	19.2 µM
CC(NCC(O)COCCC12CC3CC(CC(C3)C1)C2)c1ccccc1 (centres undefined)	31.4 µM
CCCCCCCCCCn1c2c(c(=N)c3c1CCC3)CCC2	14.7 µM
CC1CCN(CCCNC(=O)c2ccc3c(=O)n(Cc4ccc(Cl)cc4)c(=S)[nH]c3c2)CC1	44.5 µM
CCOC(=O)Cn1c(=N)n(CCOc2ccc3ccccc3c2)c2ccccc21	53.1 µM
CN(C)c1ccc2nc3ccc(=[N+](C)C)cc-3sc2c1	18.2 µM
CCOC(=O)C1=C(C(C)=O)C(c2cccnc2)C(C#N)=C(N)O1 (centres undefined)	91.5 µM
Cc1cc([N+](=O)[O-])cc(/C=N/n2c(C)nc3ccccc3c2=O)c1O	77.2 µM
O=C(N/N=C/c1c(O)ccc2ccccc12)c1ccc(CO)nc1	87.3 µM
O=c1[nH]cc(F)c(=O)[nH]1	2.99 µM
CCOc1ccc(Nc2nc(N)c3ccccc3n2)cc1	19.7 µM

SMILES	IC50
CCCCOc1ccc(Br)cc1CSC(=N)N	35 µM
Cc1cc2oc(=O)cc(CN3CCN(C/C=C/c4ccccc4)CC3)c2cc1O	80.5 µM
O=c1[nH][nH]c(-c2ccccc2O)c1C(C[N+](=O)[O-])c1ccc(Br)cc1 (centres undefined)	91.5 µM
CC1CCC(C(C)C)C(OC(=O)Cn2c(COc3ccccc3)[n+](C)c3ccccc32)C1 (centres undefined)	35.1 µM
CCCOc1ccc(C(=O)NNC(=S)NC(=O)CC)cc1	47.7 µM
O=C(C[n+]1cc(Br)cc2ccccc21)c1ccc(Cl)cc1	76.1 µM
Cc1ccc2nc(N(CCCN(C)C)C(=O)c3ccc4c(c3)CCCC4)sc2c1	40.7 µM
O=Nc1ccc(O)c2ncccc12	17.8 µM
COc1ccc(Nc2cc(C)nc(NCc3ccccc3)n2)cc1	74.1 µM
O=[N+]([O-])c1ccc(O)c(/C=N/Nc2ccccn2)c1	13.2 µM
COC(=O)N/N=C/c1c[n+]([O-])c2ccccc2[n+]1[O-]	49.2 µM
COC(=O)C1C(O)C(C)C(O)C(C)/C=C\C=C(/C)C(=O)Nc2c(C)c(OC(C)=O)c3c(c2O)C(=O)C(C)=C2OCOC(=C23)/C(C)=C/C(C)(O)C(O)C(C)C1O (centres undefined)	25.2 µM
CCOC(=O)N1CCN(C(=O)c2cn(CC)c3cc(N4CCN(C)CC4)c(F)cc3c2=O)CC1	3.42 µM
NC(=O)c1ccc(N=C2C(=O)Nc3ccc([N+](=O)[O-])cc32)cc1	34.6 µM
Cc1cc(/C=C\c2ccc3cc(N(C)C)ccc3[n+]2C)c(C)n1-c1ccccc1	27.8 µM
Cc1ccc(C)c(NC(=O)CCC(=O)N/N=C/c2cc([N+](=O)[O-])ccc2O)c1	60.6 µM
Oc1ccc(C2NCc3ccccc3-n3cccc32)cc1Cl (centres undefined)	150 µM
Oc1c(Cl)cc(CN2CCCCC2)c2cccnc12	20 µM
N=c1c2c(-c3ccccc3)c(-c3ccccc3)n(Cc3ccco3)c2ncn1CCCn1ccnc1	110 µM
CN1CCN(C2=Cc3ccccc3Sc3cc(F)ccc32)CC1	66.6 µM
CN(C)C1C(=O)C(C(N)=O)=C(O)C2(O)C(=O)C3=C(O)c4c(O)cccc4C(C)(O)C3C(O)C12 (centres undefined)	1.01 µM
CC[C@H]1OC(=O)[C@H](C)[C@@H](O[C@H]2C[C@@](C)(OC)[C@@H](O)[C@H](C)O2)[C@H](C)[C@@H](O[C@@H]2O[C@H](C)C[C@H](N(C)C)[C@H]2O)[C@](C)(O)C[C@@H](C)[C@@H]2N[C@@H](COCCOC)O[C@H]([C@H]2C)[C@]1(C)O	8.02 µM
Clc1ccc(OCCCNCc2ccccc2)c2ccccc12	19.2 µM
O=C(N/N=C/c1sc2ccccc2c1O)c1cccc2ccccc12	70.5 µM
COc1c(N2CCN(C(=S)NCc3ccccc3)C(C)C2)c(F)cc2c(=O)c(C(=O)O)cn(C3CC3)c12 (centres undefined)	36.1 µM
CCCCCN=C(N)N/N=C/c1c[nH]c2ccc(OC)cc12	38 µM
Cc1ccc(-c2csc(N=C(N)N)n2)c(C)c1	50.1 µM
